Assay results as given in the supplement of paper PMC10702517.
± gives the standard deviation.

Legend:
[1] = chemical recovery from spiked human plasma; higher = better extraction; details: pooled human plasma
[2] = chemical recovery by SPE of plasma after PDMS sampling; higher = better extraction; details: pooled human plasma, extraction method: HLB SPE of plasma after PES
[3] = extraction method: SPE only (HLB 96-well), PES comparison experiment
[4] = extraction method: solvent precipitation (ACN + hexane)
[5] = extraction method: SPE only (HLB 96-well)
[6] = extraction method: PES+SPE (3 d PDMS equilibration then HLB SPE)
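For chemical recovery by SPE of plasma after PDMS sampling in this document: over 400 spiked chemicals quantified by LC-HRMS or GC-HRMS via internal standard calibration, recovery relative to spike mix added to unspiked plasma extract to correct matrix effects.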

Compound	chemical recovery [1, 3] [%]	chemical recovery [1, 4] [%]	chemical recovery by SPE of plasma ([2]; equilibration time (d): 1) [%]	chemical recovery by SPE of plasma ([2]; equilibration time (d): 3) [%]	chemical recovery by SPE of plasma ([2]; equilibration time (d): 6) [%]	chemical recovery [1, 5] [%]	chemical recovery [1, 6] [%]
CN(C)C(=O)C(CCN1CCC(O)(c2ccc(Cl)cc2)CC1)(c1ccccc1)c1ccccc1 [Loperamide]	50.8 ± 7.4	73.1 ± 3.5	3.98 ± 0.26	3.93 ± 0.72	2.64 ± 0.097	–	–
Oc1ccccc1-c1ccccc1 [2-Phenylphenol]	–	–	4.5 ± 4	3.47 ± 0.42	3.11 ± 1.4	19.9 ± 4.2	–
Clc1ccc(-c2ccc(Cl)cc2Cl)cc1 [PCB28]	20.3 ± 4.4	–	1.11 ± 1	1.62 ± 0.27	1.51 ± 0.26	5.86 ± 1.6	–
O=C(c1ccc(OCCN2CCCCC2)cc1)c1c(-c2ccc(O)cc2)sc2cc(O)ccc12 [Raloxifene]	47.4 ± 8.5	63.5 ± 3.5	41.3 ± 2.1	46.1 ± 2.4	39.8 ± 2.8	–	–
CC/C(=C(\c1ccccc1)c1ccc(OCCN(C)C)cc1)c1ccccc1 [Tamoxifen]	38.5 ± 11	–	0.427 ± 0.08	0.167 ± 0.14	0.104 ± 0.056	39.4 ± 8.3	0.265 ± 0.056
O=c1[nH]nc(C(F)(F)F)s1 [Thiadone]	15.9 ± 4.4	–	–	47.9 ± 6.8	41.5 ± 14	–	–
Oc1ccc(Cl)cc1Cl [2,4-Dichlorophenol]	54.2 ± 5.9	–	49.3 ± 11	56.9 ± 4.3	50.9 ± 3.1	40.3 ± 3.3	43.4 ± 3.3
CCCCCCCCCCCCNC [N-Methyldodecylamine]	44.7 ± 7.9	62.7 ± 5.7	0.209 ± 0.36	–	–	–	–
NCC1(CC(=O)O)CCCCC1 [Gabapentin]	0.0969 ± 0.19	–	–	–	0.00483 ± 0.0084	14.7 ± 7.2	–
O=C(O)COCCN1CCN(C(c2ccccc2)c2ccc(Cl)cc2)CC1 (stereo not given) [Cetirizine]	48.6 ± 6.5	–	47.2 ± 6.6	52.3 ± 5.3	47.7 ± 2.9	50.9 ± 2.3	69.9 ± 7.9
O=C1Cc2cc(CCN3CCN(c4nsc5ccccc45)CC3)c(Cl)cc2N1 [Ziprasidone]	41.5 ± 7.6	76 ± 9.8	37.1 ± 6.7	34 ± 4.3	25.3 ± 2.6	38.7 ± 2.6	22.9 ± 2.4
NC(=O)N1c2ccccc2C(O)C(O)c2ccccc21 (stereo not given) [10,11-Dihydro-10,11-dihydroxycarbamazepine]	48.4 ± 4.8	71 ± 2.8	–	69.9 ± 7.5	–	44.9 ± 4.7	45.5 ± 5.2
CCCCCCCCCCCC[N+](C)(C)[O-] [N,N-Dimethyldodecylamine N-oxide]	43.2 ± 7.2	–	23.5 ± 3.5	17.7 ± 3	9.46 ± 8.3	55.1 ± 13	–
c1ccc2cc3c(ccc4ccccc43)cc2c1 [Benz(a)anthracene]	–	20.2 ± 2.8	–	8.41 ± 7.3	4.31 ± 7.5	1.06 ± 0.29	–
Oc1c(Br)cc(Cl)cc1Cc1cc(Cl)cc(Br)c1O [Bromochlorophen]	32.3 ± 8	34.9 ± 2	34.8 ± 10	–	–	28.9 ± 6	34.8 ± 6.3
O=c1c(-c2ccc(O)cc2)coc2cc(O)cc(O)c12 [Genistein]	46.4 ± 4	48.3 ± 10	46.2 ± 7.8	50 ± 4.5	47 ± 3.7	49.1 ± 3.9	55.5 ± 1.2
CC(CN1c2ccccc2Sc2ccccc21)N(C)C (stereo not given) [Promethazin]	43.8 ± 7.1	74.2 ± 4.5	0.16 ± 0.11	0.172 ± 0.13	0.00932 ± 0.01	55.2 ± 14	0.204 ± 0.12
CCCN(CC)CC1COC2(CCC(C(C)(C)C)CC2)O1 (stereo not given) [Spiroxamine]	43.7 ± 7.8	–	0.0924 ± 0.066	0.0829 ± 0.053	0.0434 ± 0.0086	47.5 ± 0.85	0.223 ± 0.025
CC[C@H]1OC(=O)[C@H](C)[C@@H](O[C@H]2C[C@@](C)(OC)[C@@H](O)[C@H](C)O2)[C@H](C)[C@@H](O[C@@H]2O[C@H](C)C[C@H](N(C)C)[C@H]2O)[C@](C)(O)C[C@@H](C)C(=O)[C@H](C)[C@@H](O)[C@]1(C)O [Erythromycin]	3.18 ± 1.2	66 ± 3.4	–	11.9 ± 6.8	6.49 ± 3.8	10.9 ± 8.2	4.25 ± 0.61

The remaining lines, values ahead:

chemical recovery [1, 3] [%]	chemical recovery [1, 4] [%]	chemical recovery by SPE of plasma ([2]; equilibration time (d): 1) [%]	chemical recovery by SPE of plasma ([2]; equilibration time (d): 3) [%]	chemical recovery by SPE of plasma ([2]; equilibration time (d): 6) [%]	chemical recovery [1, 5] [%]	chemical recovery [1, 6] [%]	Compound
44.7 ± 5.6	74.1 ± 3.9	–	47.9 ± 0.58	45 ± 6.4	61.3 ± 20	–	O=S(=O)(O)c1cccc2ccc(O)cc12 [2-Naphthol-8-sulfonic acid]
42.1 ± 7	74.9 ± 2.6	–	43.4 ± 2.1	38 ± 3.8	–	–	COc1ccc(Cl)cc1C(=O)NCCc1ccc(S(=O)(=O)NC(=O)NC2CCCCC2)cc1 [Glibenclamide]
36.6 ± 6.7	65.8 ± 3.1	–	40.7 ± 16	–	30.6 ± 3.6	38.2 ± 3.9	O=C(O)c1cc(Oc2ccc(Cl)cc2Cl)ccc1[N+](=O)[O-] [Bifenox free acid]
29.4 ± 10	14.4 ± 1.4	–	30.4 ± 11	–	–	–	CC(C)(c1cc(Br)c(O)c(Br)c1)c1cc(Br)c(O)c(Br)c1 [Tetrabromobisphenol A]
69.7 ± 4.9	–	61.1 ± 13	78.9 ± 5.7	59.8 ± 3.9	–	–	O=C(O)c1ccccc1O [Salicylic acid]
41 ± 6	–	–	54.2 ± 4.1	47.4 ± 3	–	–	CCc1cccc(C)c1N(C(=O)C(=O)O)C(C)C(=O)O (stereo not given) [Metolachlor CGA 357-704]
47.4 ± 4.1	81 ± 4.5	54.5 ± 12	57.9 ± 5	54.7 ± 7.3	48.2 ± 5.2	–	Cc1cccc(C)c1N(Cn1cccn1)C(=O)C[S+]([O-])CC(=O)O (stereo not given) [Metazachlor BH 479-9]
45.2 ± 4.9	74.3 ± 4.9	–	36.3 ± 2.3	38.3 ± 8.9	46.9 ± 14	–	Cc1ccc(S(=O)(=O)O)c(C)c1 [m-Xylene-4-sulfonic acid]
35.1 ± 8.2	–	13.4 ± 2.1	7.22 ± 1.1	4.01 ± 0.43	–	–	CCCc1nc(C)c2c(=O)nc(-c3cc(S(=O)(=O)N4CCN(CC)CC4)ccc3OCC)[nH]n12 [Vardenafil]
45.2 ± 5	79.6 ± 8.1	–	23.6 ± 2.8	28.2 ± 8.7	40.3 ± 3.8	42.4 ± 2.5	Cc1cccc(C)c1NC(=O)CS(=O)(=O)O [Dimethachlor CGA369-873]
42.6 ± 4.8	71.4 ± 5.3	46.6 ± 3.4	45.2 ± 1.8	42.1 ± 3	32 ± 1.9	36.8 ± 4.8	CCC1=C(C)CN(C(=O)NCCc2ccc(S(=O)(=O)NC(=O)NC3CCC(C)CC3)cc2)C1=O (stereo not given) [Glimepiride]
